Laboratory results reported in PubChem BioAssay (NCI).
Where “and” joins values, the source holds several entries; their conditions need not be identical. Identical values can stand only once.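 Five concentrations, 48 hours, 96-well plates. GI50 is the concentration that inhibits growth by half. TGI denotes the concentration required for complete inhibition of growth.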

Tests used:
Experiment in all cases: inhibition of tumour cell growth, NCI panel, 48 h
SK-MEL-5 melanoma = system: SK-MEL-5 melanoma
SF-539 CNS = system: SF-539 CNS
UACC-257 melanoma = system: UACC-257 melanoma
RPMI-8226 leukemia = system: RPMI-8226 leukemia
786-0 renal = system: 786-0 renal
HCC-2998 colon = system: HCC-2998 colon
OVCAR-8 ovarian = system: OVCAR-8 ovarian
DU-145 prostate = system: DU-145 prostate
T-47D breast = system: T-47D breast
NCI-H226 lung = system: NCI-H226 lung

SMILES	GI50 (SK-MEL-5 melanoma)	TGI (SK-MEL-5 melanoma)	GI50 (SF-539 CNS)	TGI (SF-539 CNS)	GI50 (UACC-257 melanoma)	TGI (UACC-257 melanoma)	GI50 (RPMI-8226 leukemia)	TGI (RPMI-8226 leukemia)	GI50 (786-0 renal)	TGI (786-0 renal)	GI50 (HCC-2998 colon)	TGI (HCC-2998 colon)	GI50 (OVCAR-8 ovarian)	TGI (OVCAR-8 ovarian)	GI50 (DU-145 prostate)	TGI (DU-145 prostate)	GI50 (T-47D breast)	TGI (T-47D breast)	GI50 (NCI-H226 lung)	TGI (NCI-H226 lung)
COc1ccc(-c2nn(-c3cccc(Cl)c3)cc2-c2c(C#N)c(=O)n3[nH]c(-c4ccc(C)o4)nc3c2C#N)cc1	5.64 µM	12.4 µM	5.67 µM	> 50 µM	8.45 µM	> 50 µM	5.68 µM	> 50 µM	9.42 µM	> 50 µM	7.43 µM	45.7 µM	5.91 µM	> 50 µM	19.1 µM	> 50 µM	2.77 µM	33.8 µM	7.35 µM	> 50 µM
c1ccc2[nH]c(-c3cscn3)nc2c1		> 100 µM		> 100 µM		> 100 µM	> 100 µM and 31.7 µM	> 100 µM		> 100 µM		> 100 µM		> 100 µM		> 100 µM		> 100 µM		> 100 µM
NCC[PH+](c1ccccc1)c1ccccc1.NCC[PH+](c1ccccc1)c1ccccc1.[Cl-].[Pt+4]	> 100 µM	> 100 µM	> 100 µM	> 100 µM	> 100 µM	> 100 µM	14.7 µM	> 65.2 µM	> 100 µM	> 100 µM	> 100 µM	> 100 µM	> 100 µM	> 100 µM	> 100 µM	> 100 µM	> 100 µM	> 100 µM	> 100 µM	> 100 µM
Cn1cc(C2=C(c3cccc([N+](=O)[O-])c3)C(=O)NC2=O)c2ccccc21	3.63 µM	8.48 µM	6.1 µM	> 25 µM	9.99 µM	> 22.7 µM	7.47 µM	> 23.2 µM	6.45 µM	> 25 µM	14.5 µM	> 25 µM	6.81 µM	> 22.4 µM	12.7 µM	> 25 µM	6.32 µM	19.4 µM	4.62 µM	> 19.2 µM
O=C(/C=C/c1ccccn1)c1ccccc1	12.1 µM	24.8 µM	4.37 µM	18.3 µM	2.68 µM	9.25 µM	2.37 µM	6.6 µM	2.84 µM	10.7 µM	15.4 µM	29.9 µM	4.18 µM	16.1 µM	13.1 µM	25.7 µM	4.87 µM	24.4 µM	15.2 µM	29.7 µM
O=[N+]([O-])/C(=C/C=C/c1ccccc1)c1ccccc1	3.16 µM	12.1 µM	1.86 µM	3.61 µM	2.74 µM	9.32 µM	0.118 µM	1.55 µM	1.81 µM	3.4 µM	1.92 µM	4.14 µM	3.27 µM	11.2 µM	1.76 µM	3.22 µM	2.07 µM	5.28 µM	6.07 µM	12.4 µM
COc1ccc2cc1Oc1ccc(cc1)CC1c3c(cc(OC)c4c3Oc3cc5c(cc3O4)CCNC5C2)CCN1C (stereo not drawn)		3.98 µM	1.9 µM	3.23 µM and 3.69 µM	1.9 µM	3.14 µM and 3.5 µM	1.61 µM	4.3 µM and 3.42 µM	2.17 µM	3.72 µM	1.2 µM	2.53 µM and 2.5 µM		3.2 µM	1.54 µM	2.87 µM	1.75 µM	3.53 µM	2.3 µM	4.18 µM
CC(C)(C)OC(=O)CC(S(=O)(=O)c1ccccc1)S(=O)(=O)c1ccccc1	15.5 µM	28.8 µM	17.4 µM	33.1 µM	3.74 µM	15.7 µM	3.49 µM	19.7 µM	13.9 µM	27.4 µM	16 µM	29.6 µM	8.32 µM	23.3 µM	15.2 µM	28.8 µM	2.32 µM	4.48 µM	4.84 µM	22.7 µM
COc1ccc(N=C2C(=O)Nc3ccc(Br)cc32)cc1		23.3 µM		35.8 µM		48.1 µM		25.2 µM		43.6 µM		37.4 µM		32.2 µM		> 100 µM		74.6 µM		35.5 µM
Cc1nc2sc(C(=O)Nc3cccc(Cl)c3)c(N)c2cc1C(O)c1ccccc1 (stereo not drawn)	0.622 µM	2.2 µM	0.546 µM	7.25 µM	1.39 µM	22.2 µM	0.848 µM	> 100 µM	2.47 µM	20.7 µM	1.98 µM	10.5 µM	2.51 µM	> 100 µM	0.923 µM	17.2 µM	0.997 µM	33 µM	3.53 µM	26.6 µM
OCCN1CCCN(CCCN2c3ccccc3Sc3ccc(C(F)(F)F)cc32)CC1	1.67 µM	3.09 µM	1.67 µM	3.12 µM	1.94 µM	3.65 µM	2.21 µM	4.46 µM	2.21 µM	5.25 µM	1.81 µM	3.33 µM	3.46 µM	12.2 µM	5.61 µM	17.8 µM	2.21 µM	5.39 µM	15.1 µM	39.1 µM
CCCC/C=C1/CCC(CN(C)C)C1=O (stereo not drawn)		22 µM		6.05 µM		5.26 µM		0.897 µM		2.9 µM		3.07 µM		4.08 µM		28.9 µM		2.64 µM		22.8 µM
COc1cc(C(=O)Nc2ccc(-c3nc4ccccc4[nH]3)cc2)cc(OC)c1OC	11.5 µM	25.9 µM	11.6 µM	27.9 µM	17.8 µM	38.9 µM	6.35 µM	30.6 µM	11.8 µM	28.6 µM	14.6 µM	36.6 µM	7.53 µM	28.5 µM	11.2 µM	25.3 µM	5.39 µM	23.4 µM	15.3 µM	36.7 µM
COC(=O)c1sc(=S)c2sc(C(=O)OC)c(C(=O)OC)c2c1C(=O)OC	39.1 µM	> 100 µM	36.7 µM	> 100 µM	26.8 µM	92 µM	22 µM	48.8 µM	89.4 µM	> 100 µM	20.5 µM	76.1 µM	57.7 µM	> 100 µM	71.1 µM	> 100 µM	77.7 µM	> 100 µM	42 µM	> 100 µM
O=C(NCCNC1=CC(=O)c2nc3ccccc3c3ccnc1c23)c1cnccn1	54.7 µM	> 100 µM	51.5 µM	> 100 µM	49.3 µM	> 100 µM	1.1 µM	24.3 µM	36.7 µM	> 100 µM	27.6 µM	> 100 µM	24.3 µM	> 100 µM	43.8 µM	> 100 µM	44.7 µM	> 100 µM	90.7 µM	> 100 µM
COc1cc(/C=C/C(=O)/C=C/c2ccc(-n3ccnc3)cc2)ccc1O	3.43 µM	12 µM	2.47 µM	6.31 µM	3.21 µM	11.5 µM	1.54 µM	4.46 µM	2.01 µM	4.85 µM	1.79 µM	3.42 µM	3.58 µM	> 100 µM	3.36 µM	10.1 µM	2.98 µM	9.92 µM	2.31 µM	5.8 µM
COc1ccc(C2=NOC3=c4ccccc4=CSC3=C2c2ccccc2)cc1	16.5 µM	39.7 µM	13.3 µM	37.5 µM	69.6 µM	> 100 µM	25.3 µM	> 100 µM	27.5 µM	> 100 µM	> 100 µM	> 100 µM	42.9 µM	> 100 µM	19.8 µM	> 100 µM	30.3 µM	73.9 µM	20.2 µM	79.8 µM
O=C(Nc1ccc(-n2cc(-c3ccncc3)c(-c3ccc(Cl)c(O)c3)n2)cc1)c1ccc(Cl)c(Cl)c1	1.15 µM	2.43 µM	0.694 µM	> 100 µM	4.74 µM	> 100 µM	0.736 µM	3.47 µM	1.78 µM	4.3 µM	3.43 µM	19.7 µM	4.68 µM	> 100 µM	> 100 µM	> 100 µM	8.09 µM	> 100 µM	26.1 µM	> 100 µM
COc1cc(OC)c(OC)cc1/C=C\c1ccnc2ccccc12		19.7 µM		1.32 µM		> 100 µM		99.1 µM		61.6 µM		17.8 µM		> 100 µM		> 100 µM		> 100 µM		30.2 µM
O=C(Cc1csc2nc(-c3ccc(Br)cc3)cn12)N/N=C/c1ccccc1O	2.98 µM	10.6 µM	3.55 µM	11.8 µM	3.68 µM	11.6 µM	2.83 µM	20.7 µM	4.68 µM	17.7 µM	3.48 µM	12.7 µM	2.28 µM	12.4 µM	2.89 µM	13.9 µM	5.22 µM	23.2 µM	1.93 µM	7.84 µM
Cc1nc(Nc2ccc(Cl)c(Cl)c2)sc1C(/C=C/c1ccc2c(c1)OCO2)=N/Nc1ccc([N+](=O)[O-])cc1[N+](=O)[O-]		> 100 µM		> 91.6 µM		> 100 µM		> 100 µM		> 100 µM		> 100 µM		> 100 µM		> 100 µM		> 100 µM		> 100 µM
Clc1cc(Cl)cc(Nc2ccc3c(OCCCN4CCOCC4)cccc3n2)c1	10.1 µM	23.2 µM	1.94 µM	3.84 µM	2.05 µM	4.31 µM	2.8 µM	8.33 µM	1.69 µM	3.22 µM	1.82 µM	3.51 µM	3.54 µM	13.3 µM	3.08 µM	9.67 µM	4.91 µM	18.2 µM	3.17 µM	10.7 µM
C=C1CCC2C(C)(CO)C(O)CCC2(C)C1C/C=C1\C(=O)OCC1O (stereo not drawn)		27.8 µM		44.3 µM		73.8 µM		49.9 µM		18.1 µM		50.6 µM		22.6 µM		> 100 µM		74.7 µM		> 100 µM
COc1ccccc1CNCCCN1C(=O)c2ccc3c4c(ccc(c24)C1=O)C(=O)N(CCCNCCCCN)C3=O	0.164 µM	0.303 µM	0.296 µM	0.818 µM	0.166 µM	0.317 µM	0.445 µM	6.13 µM	0.616 µM	3.67 µM	0.171 µM	0.417 µM	0.244 µM	0.933 µM	0.664 µM	2.35 µM	0.573 µM	2.4 µM	0.828 µM	2.55 µM
CNc1ccc(CSc2ccc(C)cc2)cc1	13.8 µM	32.6 µM	3.69 µM	24.5 µM	36.1 µM	> 100 µM	1.52 µM	21.6 µM	4.45 µM	> 100 µM	18.8 µM	83.2 µM	40.5 µM	> 100 µM	31 µM	> 100 µM	13.5 µM	> 100 µM	3.43 µM	16.4 µM
COc1ccc(-c2nc3sccn3c2/C=C/C(=O)c2cc(OC)c(OC)c(OC)c2)cc1	1.42 µM	2.98 µM	1.79 µM	4.96 µM	15.2 µM	78.7 µM	2.24 µM	7.56 µM	3.7 µM	> 100 µM	3.03 µM	14.4 µM	3.03 µM	> 21.8 µM	2.86 µM	12.9 µM	1.86 µM	8.28 µM	2.95 µM	> 35 µM
CC(C)(C)c1cnc(CSc2cnc(NC(=O)C3CCNCC3)s2)o1	0.238 µM and 0.563 µM	0.644 µM and 2.18 µM	0.243 µM and 0.179 µM	0.67 µM and 0.513 µM	0.221 µM and 0.317 µM	0.634 µM and 1.74 µM	0.118 µM and 0.243 µM	0.45 µM and 0.768 µM	0.47 µM and 0.698 µM	> 47.7 µM	0.27 µM and 0.243 µM	3.79 µM and 1.67 µM	0.307 µM and 0.365 µM	19.7 µM and > 10 µM	0.184 µM and 0.254 µM	5.53 µM and > 10 µM	0.251 µM and 0.225 µM	0.847 µM and > 4.35 µM	0.663 µM and 0.222 µM	
